PubChem BioAssay AID256 (DTP/NCI, 2004)
Inconclusive results and toxic doses are left out.

System: CD2F1 mice, L1210 leukemia ip, survival T/C
Test: NCI In Vivo Anticancer Drug Screen. Data for tumor model L1210 Leukemia (intraperitoneal) in CD2F1 (CDF1) mice
Conditions: higher = longer survival
In short: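 Mice carrying a transplanted tumor received test compound or vehicle alone. The value is the measurement in the treated group divided by that in the vehicle-treated control group.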

[1] = endpoint: mean survival time, dose: 100.0 mg/kg/injection, schedule: Q01DX009 (ip), vehicle: saline with Tween-80
[2] = endpoint: mean survival time, dose: 100.0 mg/kg/injection, schedule: Q04DX003 (ip), vehicle: saline with Tween-80
[3] = endpoint: mean survival time, dose: 200.0 mg/kg/injection, schedule: Q01DX009 (ip), vehicle: saline with Tween-80
[4] = endpoint: mean survival time, dose: 200.0 mg/kg/injection, schedule: Q04DX003 (ip), vehicle: saline with Tween-80
[5] = endpoint: mean survival time, dose: 400.0 mg/kg/injection, schedule: Q01DX009 (ip), vehicle: saline with Tween-80
[6] = endpoint: mean survival time, dose: 400.0 mg/kg/injection, schedule: Q04DX003 (ip), vehicle: saline with Tween-80
[7] = endpoint: mean survival time, dose: 100.0 mg/kg/injection, schedule: Q01DX001 (ip), vehicle: saline with Tween-80
[8] = endpoint: mean survival time, dose: 200.0 mg/kg/injection, schedule: Q01DX001 (ip), vehicle: saline with Tween-80
[9] = endpoint: mean survival time, dose: 400.0 mg/kg/injection, schedule: Q01DX001 (ip), vehicle: saline with Tween-80

CC(=O)NC(C(=O)O)C(C)c1c[nH]c2ccccc12 (stereo not drawn)
T/C [1]: 104 % of control
T/C [2]: 97 % of control
T/C [3]: 96 % of control
T/C [4]: 97 % of control
T/C [5]: 95 % of control
T/C [6]: 91 % of control

[Cl][Pt+2][Cl].[NH-]C(C(=O)OCc1ccccc1)c1ccccc1.[NH-]C(C(=O)OCc1ccccc1)c1ccccc1 (stereo not drawn)
T/C (endpoint: median survival time, dose: 3.12 mg/kg/injection, schedule: Q04DX003 (ip), vehicle: saline): 103 % of control
T/C (endpoint: median survival time, dose: 6.25 mg/kg/injection, schedule: Q04DX003 (ip), vehicle: saline): 109 % of control
T/C (endpoint: median survival time, dose: 12.5 mg/kg/injection, schedule: Q04DX003 (ip), vehicle: saline): 98 % of control
T/C (endpoint: median survival time, dose: 25.0 mg/kg/injection, schedule: Q04DX003 (ip), vehicle: saline): 101 % of control
T/C (endpoint: median survival time, dose: 50.0 mg/kg/injection, schedule: Q04DX003 (ip), vehicle: saline): 109 % of control
T/C (endpoint: median survival time, dose: 100.0 mg/kg/injection, schedule: Q04DX003 (ip), vehicle: saline): 109 % of control
T/C (endpoint: median survival time, dose: 200.0 mg/kg/injection, schedule: Q04DX003 (ip), vehicle: saline): 111 % of control

CCCCSC#N
T/C (endpoint: mean survival time, dose: 7.5 mg/kg/injection, schedule: Q01DX009 (ip), vehicle: saline with Tween-80): 95 % of control
T/C (endpoint: mean survival time, dose: 15.0 mg/kg/injection, schedule: Q01DX009 (ip), vehicle: saline with Tween-80): 100 % of control
T/C (endpoint: mean survival time, dose: 30.0 mg/kg/injection, schedule: Q01DX009 (ip), vehicle: saline with Tween-80): 91 % of control

O=c1[nH]nc(-c2cccc3ccccc23)c2ccccc12
T/C [2]: 97 % of control
T/C [4]: 94 % of control
T/C [6]: 97 % of control

C=C1CN(C(=O)NCCCl)C1
T/C [7]: 100 % of control
T/C [8]: 100 % of control
T/C [9]: 97 % of control

CC(C)=CCO
T/C (endpoint: mean survival time, dose: 100.0 mg/kg/injection, schedule: Q04DX003 (ip), vehicle: saline): 105 % of control
T/C (endpoint: mean survival time, dose: 200.0 mg/kg/injection, schedule: Q04DX003 (ip), vehicle: saline): 94 % of control
T/C (endpoint: mean survival time, dose: 400.0 mg/kg/injection, schedule: Q04DX003 (ip), vehicle: saline): 94 % of control

O=C(NCCN1CC1)c1ccccc1C(=O)NCCN1CC1
T/C (endpoint: mean survival time, dose: 25.0 mg/kg/injection, schedule: Q04DX003 (ip), vehicle: saline with Tween-80): 105 % of control
T/C (endpoint: mean survival time, dose: 50.0 mg/kg/injection, schedule: Q04DX003 (ip), vehicle: saline with Tween-80): 100 % of control
T/C (endpoint: mean survival time, dose: 100.0 mg/kg/injection, schedule: Q01DX001 (ip), vehicle: saline): 110 % of control
T/C [2]: 117 % of control
T/C (endpoint: mean survival time, dose: 200.0 mg/kg/injection, schedule: Q01DX001 (ip), vehicle: saline): 164 % of control

CCCCCCCCC(O)CCCCCCCCC(=O)O (stereo not drawn)
T/C [7]: 93 % of control
T/C [8]: 87 % of control
T/C [9]: 87 % of control

CC(=O)Nc1onc(C)c1NC(C)=O
T/C [1]: 95 % of control
T/C [3]: 101 % of control
T/C [5]: 95 % of control

CC12C3C4C5C3C1(C)C(C42)C51OCCO1 (stereo not drawn)
T/C (endpoint: mean survival time, dose: 12.5 mg/kg/injection, schedule: Q04DX002 (ip), vehicle: saline with Tween-80): 100 % of control
T/C (endpoint: mean survival time, dose: 25.0 mg/kg/injection, schedule: Q04DX002 (ip), vehicle: saline with Tween-80): 100 % of control
